Target: SEB (Staphylococcus aureus, UniProt P01552)
Type: binding

SEB, sequence (P01552 28-266 limits assumed): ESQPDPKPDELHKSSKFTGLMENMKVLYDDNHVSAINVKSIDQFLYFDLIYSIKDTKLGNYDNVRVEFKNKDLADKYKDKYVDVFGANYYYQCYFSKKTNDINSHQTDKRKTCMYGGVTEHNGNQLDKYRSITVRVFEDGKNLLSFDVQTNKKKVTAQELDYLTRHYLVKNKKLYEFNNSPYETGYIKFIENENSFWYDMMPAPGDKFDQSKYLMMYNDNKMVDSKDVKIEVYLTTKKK

| Substance | binding of SEB to glycosphingolipid |
| --- | --- |
| digalactosylceramide [diGalCer] | strong binding |
| galactosylceramide [GalCer] | did not significantly bind |
| glucosylceramide [GlcCer] | did not significantly bind |
| lactosylceramide [LacCer] | did not significantly bind |

From patent US6528272B2 (priority 1997, dated 2003)
